Assays:
[1] = tested on: Escherichia coli (ATCC 10536); assay: Broth assay of killing action of antibiotic alone and with lysergol (viable cell count); settings: E. coli
[2] = tested on: Mycobacterium smegmatis (ATCC 14468); assay: as above; settings: M. smegmatis; antibiotic 0.2 μg/ml
[3] = tested on: Bacillus subtilis (ATCC 6051); assay: as above; settings: B. subtilis; antibiotic 0.4 μg/ml
[4] = tested on: bacteria; assay: Growth of bacteria in presence of lysergol alone; assay type: cell-based; settings: bacteria grown in presence of lysergol alone
Text: 1. […] Process for the Isolation of Lysergol

Row | SMILES | Survival fraction of viable cells upon treatment with antibiotic alone ([1]; antibiotic 10 μg/ml) | Survival fraction of viable cells upon treatment with antibiotic alone ([1]; antibiotic 20 μg/ml) | Survival fraction of viable cells upon treatment with antibiotic alone [2] | Survival fraction of viable cells upon treatment with antibiotic alone [3] | Killing of bacteria by the compound as such [4]
1 | CO[C@H]1/C=C/O[C@@]2(C)Oc3c(C)c(O)c4c(O)c(c(/C=N/N5CCN(C)CC5)c(O)c4c3C2=O)NC(=O)/C(C)=C\C=C\[C@H](C)[C@H](O)[C@@H](C)[C@@H](O)[C@@H](C)[C@H](OC(C)=O)[C@@H]1C [Rifampicin] | 0.35-0.45 | 0.25-0.30 | 0.45-0.54 | 0.085-0.096 | –
2 | CN1C[C@H](CO)C=C2c3cccc4[nH]cc(c34)C[C@H]21 [lysergol, 9,10-Didehydro-6-methylergoline-8-[…]-methanol] | – | – | – | – | no significant killing

— patent US20070060604A1, “Antibiotic pharmaceutical composition with lysergol as bio-enhancer and method of treatment” (COUNCIL OF SCIENTIFIC AND INDUSTRIAL RESEARCH, priority 2002, published 2007)
